Measured values: PubChem BioAssay AID292 (DTP/NCI, 2004)
Values joined by “and” are separate entries in the source; they are usually repeats but may differ in a detail not shown here. Equal entries are not always repeated. Inconclusive results and toxic doses are left out. Rule for the calls: active = survival T/C of 150% or more; inactive = T/C below 125% in these data.

Test system: B6C3F1 mice, ip Sarcoma M5076, median survival T/C
Experiment: NCI In Vivo Anticancer Drug Screen. Data for tumor model Sarcoma M5076 (intraperitoneal) in B6C3F1 mice
Conditions: endpoint: median survival time, higher = longer survival
Outline: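 Antitumour effect is judged in tumour-bearing mice by comparing survival after compound dosing against vehicle-only animals, reported as T/C.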

[1] = dose: 50.0 mg/kg/injection, schedule: Q04DX004 (ip), vehicle: saline with Tween-80
[2] = dose: 100.0 mg/kg/injection, schedule: Q04DX004 (ip), vehicle: saline with Tween-80
[3] = dose: 200.0 mg/kg/injection, schedule: Q04DX004 (ip), vehicle: saline with Tween-80
[4] = dose: 400.0 mg/kg/injection, schedule: Q04DX004 (ip), vehicle: saline with Tween-80

Measured: T/C

CC[C@@]1(O)C(=O)OCc2c1cc1n(c2=O)Cc2cc3cc(O)ccc3nc2-1
active: dose: 3.75 mg/kg/injection, schedule: Q04DX004 (ip), vehicle: suspension in saline 162 % of control
inactive: dose: 0.86 mg/kg/injection, schedule: Q04DX004 (ip), vehicle: suspension in saline 104 % of control | dose: 1.44 mg/kg/injection, schedule: Q04DX004 (ip), vehicle: suspension in saline 109 % of control | dose: 1.88 mg/kg/injection, schedule: Q04DX004 (ip), vehicle: suspension in saline 106 % of control | dose: 2.4 mg/kg/injection, schedule: Q04DX004 (ip), vehicle: suspension in saline 115 % of control | dose: 6.67 mg/kg/injection, schedule: Q04DX004 (ip), vehicle: suspension in saline 116 % of control

COc1ccc(-n2cc[n+](C)c2/C=N\O)cc1
inactive: dose: 31.25 mg/kg/injection, schedule: Q04DX004 (ip), vehicle: saline with Tween-80 101 % of control | dose: 62.5 mg/kg/injection, schedule: Q04DX004 (ip), vehicle: saline with Tween-80 94 % of control | dose: 125.0 mg/kg/injection, schedule: Q04DX004 (ip), vehicle: saline with Tween-80 114 % of control

O=C1NC(=O)N(c2ccc(Cl)c(Cl)c2)C1=O
inactive: dose: 50.0 mg/kg/injection, schedule: Q04DX004 (ip), vehicle: Klucel (hydroxypropylcellulose) (HPC) 93 % of control | dose: 100.0 mg/kg/injection, schedule: Q04DX004 (ip), vehicle: Klucel (hydroxypropylcellulose) (HPC) 95 % of control | dose: 200.0 mg/kg/injection, schedule: Q04DX004 (ip), vehicle: Klucel (hydroxypropylcellulose) (HPC) 92 % of control | dose: 400.0 mg/kg/injection, schedule: Q04DX004 (ip), vehicle: Klucel (hydroxypropylcellulose) (HPC) 89 % of control

O=[n+]1c2c(n([O-])c3ccccc31)CCC2
inactive: dose: 21.9 mg/kg/injection, schedule: Q04DX004 (ip), vehicle: saline with Tween-80 103 % of control | dose: 43.75 mg/kg/injection, schedule: Q04DX004 (ip), vehicle: saline with Tween-80 102 % of control | dose: 87.5 mg/kg/injection, schedule: Q04DX004 (ip), vehicle: saline with Tween-80 104 % of control | dose: 175.0 mg/kg/injection, schedule: Q04DX004 (ip), vehicle: saline with Tween-80 107 % of control and 108 % of control | dose: 350.0 mg/kg/injection, schedule: Q04DX004 (ip), vehicle: saline with Tween-80 109 % of control and 110 % of control

CC1C(c2ccccc2)OC(N2CCOCC2)C(C)(C)CN1C (configuration not stated)
inactive: dose: 150.0 mg/kg/injection, schedule: Q04DX004 (ip), vehicle: saline with Tween-80 101 % of control | dose: 300.0 mg/kg/injection, schedule: Q04DX004 (ip), vehicle: saline with Tween-80 104 % of control | dose: 600.0 mg/kg/injection, schedule: Q04DX004 (ip), vehicle: saline with Tween-80 99 % of control

C[C@H](N)C(=O)N[C@@H]1[C@H]2C(=C(O)C[C@@H](O)[C@@H]2O)C(=O)O[C@]1(C)C(Cl)Cl
active: dose: 2.16 mg/kg/injection, schedule: Q04DX004 (ip), vehicle: saline 159 % of control | dose: 3.6 mg/kg/injection, schedule: Q04DX004 (ip), vehicle: saline 179 % of control | dose: 6.0 mg/kg/injection, schedule: Q04DX004 (ip), vehicle: saline 152 % of control and 164 % of control | dose: 10.0 mg/kg/injection, schedule: Q04DX004 (ip), vehicle: saline 235 % of control

CO[C@@]12[C@H](COC(N)=O)C3=C(C(=O)C(C)=C(N)C3=O)N1C[C@@H]1N[C@@H]12
inactive: dose: 0.25 mg/kg/injection, schedule: Q04DX004 (ip), vehicle: saline 106 % of control | dose: 0.5 mg/kg/injection, schedule: Q04DX004 (ip), vehicle: saline 120 % of control and 121 % of control

Nc1ccc2ccc(NS(=O)(=O)N3CCCCC3)cc2c1
inactive: [1] 100 % of control | [2] 107 % of control | [3] 112 % of control | [4] 120 % of control

COc1ccc(CCN2C(=O)C(=O)N(c3cccc4c(N5C(=O)C(=O)N(CCc6ccc(OC)c(OC)c6)C5=O)cccc34)C2=O)cc1OC
inactive: dose: 18.75 mg/kg/injection, schedule: Q04DX004 (ip), vehicle: Klucel (hydroxypropylcellulose) (HPC) 94 % of control | dose: 37.5 mg/kg/injection, schedule: Q04DX004 (ip), vehicle: Klucel (hydroxypropylcellulose) (HPC) 99 % of control | dose: 75.0 mg/kg/injection, schedule: Q04DX004 (ip), vehicle: Klucel (hydroxypropylcellulose) (HPC) 99 % of control | dose: 150.0 mg/kg/injection, schedule: Q04DX004 (ip), vehicle: Klucel (hydroxypropylcellulose) (HPC) 105 % of control

O=C(Nc1ccccc1O)C1C(=O)C(=O)N(c2ccccc2O)C1=O (configuration not stated)
inactive: [1] 106 % of control | [2] 103 % of control | [3] 100 % of control | [4] 100 % of control | dose: 800.0 mg/kg/injection, schedule: Q04DX004 (ip), vehicle: saline with Tween-80 95 % of control

O=Cc1ccc(O)c(O)c1
inactive: [1] 100 % of control | [2] 96 % of control | [3] 104 % of control | [4] 104 % of control

ClCCCN1CCN(CCCl)CC1
active: dose: 10.0 mg/kg/injection, schedule: Q04DX004 (ip), vehicle: saline with Tween-80 175 % of control
inactive: dose: 0.63 mg/kg/injection, schedule: Q04DX004 (ip), vehicle: saline with Tween-80 99 % of control | dose: 1.25 mg/kg/injection, schedule: Q04DX004 (ip), vehicle: saline with Tween-80 118 % of control | dose: 20.0 mg/kg/injection, schedule: Q04DX004 (ip), vehicle: saline with Tween-80 94 % of control

O=C1C=C(N2CC2)C(=O)C(N2CC2)=C1N1CC1
inactive: dose: 1.56 micrograms/kg/injection, schedule: Q04DX004 (ip), vehicle: saline 99 % of control | dose: 3.12 micrograms/kg/injection, schedule: Q04DX004 (ip), vehicle: saline 103 % of control | dose: 6.25 micrograms/kg/injection, schedule: Q04DX004 (ip), vehicle: saline 111 % of control | dose: 12.5 micrograms/kg/injection, schedule: Q04DX004 (ip), vehicle: saline 111 % of control | dose: 25.0 micrograms/kg/injection, schedule: Q04DX004 (ip), vehicle: saline 114 % of control

N#Cc1c(-c2ccccc2)c(-c2ccccc2)nn(CC(=O)O)c1=O
inactive: dose: 50.0 mg/kg/injection, schedule: Q04DX004 (ip), vehicle: distilled water + Tween-80 102 % of control | dose: 100.0 mg/kg/injection, schedule: Q04DX004 (ip), vehicle: distilled water + Tween-80 102 % of control | dose: 200.0 mg/kg/injection, schedule: Q04DX004 (ip), vehicle: distilled water + Tween-80 97 % of control

COC(C(=O)C(O)C(C)O)C1CC2C=C3C=C(OC4CC(OC5CC(O)C(OC)C(C)O5)C(OC(C)=O)C(C)O4)C(C)C(=O)C3=C(O)C2=C(O)C1OC1CC(OC2CC(OC3CC(C)(O)C(O)C(C)O3)C(O)C(C)O2)C(O)C(C)O1 (configuration not stated)
inactive: dose: 1.0 mg/kg/injection, schedule: Q04DX004 (ip), vehicle: saline with Tween-80 104 % of control | dose: 2.0 mg/kg/injection, schedule: Q04DX004 (ip), vehicle: saline with Tween-80 112 % of control | dose: 4.0 mg/kg/injection, schedule: Q04DX004 (ip), vehicle: saline with Tween-80 107 % of control and 112 % of control | dose: 8.0 mg/kg/injection, schedule: Q04DX004 (ip), vehicle: saline with Tween-80 104 % of control and 108 % of control | dose: 16.0 mg/kg/injection, schedule: Q04DX004 (ip), vehicle: saline with Tween-80 107 % of control and 111 % of control | dose: 32.0 mg/kg/injection, schedule: Q04DX004 (ip), vehicle: saline with Tween-80 117 % of control | dose: 64.0 mg/kg/injection, schedule: Q04DX004 (ip), vehicle: saline with Tween-80 115 % of control

COc1ccc(-c2c(N3CCOCC3)oc3cc(N4CCOCC4)c(O)cc23)cc1
inactive: [1] 95 % of control | [2] 104 % of control | [3] 98 % of control | [4] 95 % of control

CS(=O)(=O)OCCCNCCCOS(C)(=O)=O
active: dose: 10.0 mg/kg/injection, schedule: Q04DX005 (ip), vehicle: saline 150 % of control | dose: 20.0 mg/kg/injection, schedule: Q04DX005 (ip), vehicle: saline 185 % of control | dose: 40.0 mg/kg/injection, schedule: Q04DX005 (ip), vehicle: saline 319 % of control | dose: 80.0 mg/kg/injection, schedule: Q04DX005 (ip), vehicle: saline 319 % of control

Oc1cccc2ccccc12
inactive: dose: 25.0 mg/kg/injection, schedule: Q04DX004 (ip), vehicle: water 100 % of control | dose: 50.0 mg/kg/injection, schedule: Q04DX004 (ip), vehicle: water 105 % of control | dose: 100.0 mg/kg/injection, schedule: Q04DX004 (ip), vehicle: water 98 % of control

O=[N+]([O-])O.[Ga]
inactive: dose: 25.0 mg/kg/injection, schedule: Q04DX005 (ip), vehicle: saline 111 % of control | dose: 50.0 mg/kg/injection, schedule: Q04DX005 (ip), vehicle: saline 115 % of control | dose: 100.0 mg/kg/injection, schedule: Q04DX005 (ip), vehicle: saline 115 % of control
